Among the data in patent publication US11047861B2, “Cellular assays with a molecular endpoint measured by SAMDI mass spectrometry” (NORTHWESTERN UNIVERSITY, priority 2015, dated 2021) are IC50 and PTP inhibition values, retold here.

The subject of test [1] is protein tyrosine phosphatase (PTP). As to the kind of experiment: SAMDI assay of PTP activity in cell lysate treated with inhibitor and applied to the monolayer. Format: biochemical. To be noted: treatment of MDA-MB-231 cell lysate (rather than cells), read-out: PTP inhibition, IC50. The method, then:
MDA-MB-231 cells were lysed using the lysis buffer containing protease inhibitor described above to achieve the equivalent of 75 cells per 1.5 μL, after mixing with inhibitor solutions. Inhibitor solutions in lysis buffer at concentrations ranging from 0 to 640 μM were added to the lysate and 1.5 μL of the mixture was spotted on monolayers presenting cyclic RGD and phosphatase substrate. The reaction was carried out for 1 hour at 37° C. in a humidified chamber. To evaluate dose-response inhibition under standard culture conditions, MDA-MB-231 cells were plated on a 96-well plate at a density of 6,400 cells per well and cultured for two hours. Culture medium containing inhibitors at final concentrations ranging from 0 to 300 μM and 1% DMSO were delivered to each well and culture proceeded for another two hours. The mixture containing media and inhibitor was removed from each well and centrifuged. Lysis buffer containing protease inhibitor was applied to each well in the plate and incubated for 10 minutes at room temperature. The lysate was collected and added to the corresponding cell pellet for each inhibitor concentration sample. […] Protein concentrations were measured using a BCA assay (Santa Cruz Biotechnology), following manufacturer instructions. […] IC50 values and curves were determined using GraphPad prism software.

The test system is the same in test [2]. The test can be described thus: TCAL-SAMDI assay of PTP activity, inhibitors applied to cells cultured on the monolayer. Format: cell-based. The method, then: HeLa cells and MDA-MB-231 cells were obtained from ATCC and cultured in αMEM (for HeLa cells) or high-glucose DMEM (for MDA-MB-231 cells) medium supplemented with 10% fetal bovine serum, glutamax, penicillin and streptomycin. All cells were cultured in a humidified incubator at 37° C. and CO2. Cells were trypsinized and suspended in media, and the average number of cells per μL was counted using a hemocytometer and Countess automated cell counter (Life Technologies), and cell concentrations were adjusted to seed the desired number of cells per spot in 3 μL media. Cells were cultured on the monolayers presenting RGD and peptide substrates on steel plates or glass slides for two hours under standard growth conditions. For PTP activity assays, cells were cultured for two hours before addition of inhibitors, if any. […] A 30 mg/mL solution of 2,4,6-trihydroxyacetophenone in acetone was delivered to each spot on the array and the surfaces were analyzed using an AB Sciex 5800 MALDI TOF/TOF instrument in positive reflector mode. The area under the curves for the [M+H]^+ peaks of disulfides was measured with the Data Explorer software (AB Sciex). […]
MDA-MB-231 cells were seeded at 75 cells per spot on monolayers presenting phosphatase peptide substrates and cyclic RGD as described above. […] IC50 values and curves were determined using GraphPad prism software.

The structures appear in SMILES notation.

As a reminder, the IC50 is the midpoint of a concentration-inhibition curve. On to `O=C1C(=NNc2ccc(S(=O)(=O)O)cc2)C(c2ccc([N+](=O)[O-])cc2)=NN1c1ccccc1` [PHPS1], for which the IC50 in test [1] turned out to be 75 µM. Moreover, the PTP inhibition entry in test [2] (treatment of cells, inhibitor concentration up to 160 μM) is reported as “did not show PTP inhibition”.
In the case of `O=C(CBr)c1ccc(O)cc1` [PTPI-I], the IC50 in test [1] came to 83 µM; in test [2] (treatment of cultured MDA-MB-231 cells on monolayer for two hours, then lysis in place, read-out: inhibition of PTP activity, IC50) it was 14 µM.
